What all share (assay): NCI tumour cell line growth inhibition, 48 h
Assay [1] has as its system SK-MEL-28 melanoma.
The subject of assay [2] is LOX IMVI melanoma.
Assay [3] concerns U251 CNS.
Assay [4] has as its system HCC-2998 colon.
The subject of assay [5] is 786-0 renal.
In assay [6] the test system is CAKI-1 renal.
Assay [7] relates to SK-OV-3 ovarian.
Assay [8] deals with TK-10 renal.
The test system of assay [9] is HT29 colon.
Assay [10] relates to NCI/ADR-RES ovarian.

Results on 16 molecules are retold here after PubChem BioAssay (NCI).

Molecules are shown by their SMILES. Where “and” joins values, the source holds several entries; their conditions need not be identical. Equal entries are not always repeated.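 Cultured in 96-well plates, cells were exposed to test compound for 48 hours across five concentrations. GI50 marks 50% less growth. TGI denotes the concentration required for complete inhibition of growth.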 Bounds are passed on as bounds.

For `CC(C)(C)C#CC1=C(Br)C(=O)OC1`, the GI50 was 1.12 µM in assay [1]; 1.7 µM in assay [2]; 0.997 µM in [3]; 1.59 µM in [4]; 2.27 µM in assay [5]; 2.38 µM in assay [6]. The GI50 in [7] was > 100 µM; in assay [8] it was 0.36 µM; in assay [9], 0.116 µM; in assay [10] it was 0.426 µM. The TGI was 67 µM in assay [1]; > 21.2 µM in [2]; > 36.5 µM in assay [3]; 3.12 µM in assay [4]; 5.96 µM in [5]; 6.95 µM in assay [6]. The TGI in [7] is > 100 µM; in assay [8], 2.26 µM; in assay [9] it was > 100 µM; in assay [10], 2.8 µM.

On to `O=C(c1ccc(F)cc1)c1cccc(C(=O)c2ccc(F)cc2)n1`, for which the TGI is > 100 µM in assay [1]; > 100 µM in assay [2]; 44.5 µM in assay [3]; > 100 µM in [4]; 77.1 µM in assay [5]; > 100 µM in assay [6]. The TGI in assay [7] was 52.5 µM; in assay [8], 69.3 µM; in [9] it was > 100 µM; in assay [10] it was > 100 µM.

Turning to `Cc1ccc(S(=O)(=O)N2CCSCCSCCSCCSCC2)cc1`, the TGI in assay [1] was > 100 µM; in assay [2] it was > 100 µM; in [3], 35.3 µM; in assay [4], > 100 µM; in assay [5], 40.2 µM; in [6], 66.4 µM. The TGI in assay [7] is 46 µM; in [8], > 74.5 µM; in [9], > 100 µM; in assay [10], 77.1 µM.

Consider `COC(=O)[C@]12CC[C@@H](C)[C@H](C)[C@@H]1C1=CC[C@@H]3[C@@]4(C)C[C@@H](OC(C)=O)[C@H](O)[C@@](C)(COC(C)=O)[C@@H]4[C@H](O)C[C@@]3(C)[C@]1(C)CC2`, for which the GI50 is 2.42 µM in assay [1]; 1.64 µM in [2]; 1.87 µM in [3]; 2.14 µM in [4]; 1.89 µM in assay [5]; 2.82 µM in [6]. For the same molecule, the GI50 was 3.27 µM in assay [7], 2.68 µM in assay [8], 1.82 µM in assay [9] and 2.68 µM in assay [10]. Moreover, the TGI in assay [1] amounted to 6.7 µM; in assay [2], 3.1 µM; in assay [3] it was 4.01 µM; in [4], 4.57 µM; in [5] it was 4.84 µM; in [6], 10.9 µM. Further, the TGI turned out to be 10.3 µM in [7], 8.97 µM in [8], 3.7 µM in assay [9] and 7.54 µM in assay [10].

For `CC/C=C\C=C/C(=O)N/C=C/CC1Cc2cccc(O)c2C(=O)O1` (stereo not drawn), the GI50 in [1] was 17.4 µM; in [2] it was 13.3 µM; in assay [3] it was 23.3 µM; in assay [4] it was 19.2 µM; in assay [5], 25.2 µM; in assay [6], 17.3 µM. In addition, the GI50 is 46.7 µM in assay [7], 62 µM in assay [8], 23.5 µM in assay [9] and 35.5 µM in assay [10]. Further, the TGI in [1] was 58.7 µM; in [2] it was 26.5 µM; in assay [3], > 100 µM; in assay [4], 43.5 µM; in [5] it was 73.8 µM; in assay [6] it was 36.3 µM. Besides, the TGI was > 100 µM in assay [7], > 100 µM in assay [8], 53.7 µM in assay [9] and > 100 µM in [10].

As to `CCN(CC)S(=O)(=O)c1ccc(OC)c(Nc2ncc(-c3ccccc3)o2)c1`, the GI50 was > 25 µM in assay [1]; > 22.6 µM in assay [2]; > 18.7 µM in assay [3]; > 25 µM in assay [4]; 22.8 µM in assay [5]; > 25 µM in assay [6]. In addition, the GI50 is 20.9 µM in [7], > 17.4 µM in assay [8], > 17.6 µM in assay [9] and > 17.8 µM in assay [10]. Further, the TGI in [1], in assay [2], in assay [3], in [4], in [5] and in assay [6] was > 25 µM in each case. In addition, the TGI in assay [7], in [8], in assay [9] and in assay [10] was > 25 µM in each case.

With `CC(C)(C)C[C@H]1NC(C(=O)NCC[C@H](O)CO)[C@H](c2cccc(Cl)c2)[C@@]12C(=O)Nc1cc(Cl)c(F)cc12` (stereo partly drawn), the GI50 in [1] is 15.9 µM; in assay [2] it was 3.12 µM; in assay [3] it was 15 µM; in [4] it was 16.2 µM; in [5], 17 µM; in assay [6], 3.84 µM. Also, the GI50 in [7] was 16.3 µM; in [8], 19.2 µM; in assay [9] it was 17 µM; in assay [10], 37 µM. Further, the TGI in [1] was 30.5 µM; in [2], 19.1 µM; in assay [3], 30.5 µM; in [4] it was 31.1 µM; in assay [5], 33.8 µM; in [6] it was 18.1 µM. Moreover, the TGI in assay [7] is 34.9 µM; in assay [8] it was 39.5 µM; in assay [9], 32.4 µM; in assay [10], > 100 µM.

On to `O=C1OC(=O)C(c2c[nH]c3ccccc23)=C1c1c[nH]c2ccccc12`, for which the GI50 in [1], in assay [2], in assay [3], in [4], in assay [5] and in assay [6] was > 25 µM throughout. Also, the GI50 in assay [7], in assay [8], in assay [9] and in [10] was > 25 µM each time. The TGI in [1], in assay [2], in assay [3], in assay [4], in assay [5] and in assay [6] was > 25 µM in each case. For the same molecule, the TGI in assay [7], in assay [8], in assay [9] and in assay [10] was > 25 µM in each case.

With `Cc1ccc2c(ccc3c[n+]4c5ccccc5ccc4n32)c1`, the GI50 was 1.2 µM in assay [1]; 1.32 µM in assay [2]; 0.361 µM in assay [3]; 1.27 µM in assay [4]; 2.56 µM in assay [5]; 8.25 µM in assay [6]. The GI50 in assay [7] is 1.76 µM; in assay [8] it was 4.11 µM; in [9] it was 2.08 µM; in [10], > 100 µM. Besides, the TGI was 3.32 µM in [1]; 3.25 µM in [2]; 2.12 µM in assay [3]; 2.98 µM in assay [4]; 14.8 µM in assay [5]; > 100 µM in assay [6]. Besides, the TGI in [7] was 6.94 µM; in [8] it was 25.1 µM; in [9], 8.77 µM; in assay [10], > 100 µM.

Take `O=C1c2ccccc2-c2c1c1ccccc1c(=O)n2CCCNCCCNCCCn1c2c(c3ccccc3c1=O)C(=O)c1ccccc1-2`: the GI50 was 1.17 µM in assay [1]; 0.0215 µM in assay [2]; < 0.01 µM in assay [3]; < 0.0162 µM in assay [4]; < 0.0362 µM in [5]; 0.342 µM in [6]. The results for the GI50 in [7], in assay [9] and in [10] were 1.9 µM, < 0.01 µM and 0.319 µM, respectively. Further, the TGI was 2.83 µM in assay [1]; 0.175 µM in assay [2]; 0.122 µM in assay [3]; 0.167 µM in assay [4]; 0.172 µM in [5]; 1.7 µM in assay [6]. Moreover, the TGI in assay [7] was 6.04 µM; in assay [8] it was 0.732 µM; in assay [9] it was 0.135 µM; in [10] it was 1.98 µM.

For `COc1ccc(N2C(C)=C(C#N)C34C(=O)N(c5ccccc5)C(=O)C3=C(O)C=CC24O)cc1` (stereo not drawn), the GI50 was 12 µM in [1]; 5.24 µM in assay [2]; 13 µM in assay [3]; 9.88 µM in [4]; 19 µM in assay [5]; 2.65 µM in assay [6]. In addition, the GI50 in [7] is 36.2 µM; in assay [8] it was 21.5 µM; in [9], 12.3 µM; in assay [10] it was 29 µM. Also, the TGI came to 30.1 µM in assay [1]; 18.8 µM in assay [2]; 25.7 µM in assay [3]; 23.6 µM in assay [4]; 65.8 µM in [5]; 16.6 µM in assay [6]. In addition, the TGI in [7] was > 100 µM; in assay [8], 89 µM; in [9], 28.3 µM; in assay [10] it was 91 µM.

For `CC(C)NC[C@@H](C(=O)N1CCN(c2ncnc3c2[C@H](C)C[C@H]3O)CC1)c1ccc(Cl)cc1`, the GI50 is > 10 µM and 36.6 µM in assay [1]; > 10 µM and 66 µM in assay [2]; 0.958 µM and 0.683 µM in [3]; 0.334 µM and 0.546 µM in [5]; > 10 µM and 36.1 µM in assay [6]; 0.596 µM and 0.783 µM in assay [7]. The GI50 in [8] is 1.29 µM and 3.32 µM; in assay [9], 1.58 µM and 3.45 µM; in assay [10], > 100 µM. The TGI in assay [1], in assay [2], in [3], in assay [4], in assay [5] and in [6] was > 100 µM in each case. The TGI is > 100 µM in assay [7], > 66.4 µM in [8], > 100 µM in assay [9] and > 100 µM in [10].

Regarding `Cc1c(C(=O)/C=C/c2csc3ccccc23)[n+](=O)c2ccccc2n1[O-]`, the GI50 in assay [1] is 2.07 µM; in assay [2], 1.23 µM; in [3] it was 1.64 µM; in [4] it was 1.91 µM; in [5] it was 1.64 µM; in assay [6] it was 1.42 µM. Also, the GI50 in assay [7] was 1.79 µM; in assay [8], 2.79 µM; in assay [9], 2.2 µM; in assay [10] it was 2.01 µM. The TGI in assay [1] is 4.81 µM; in [2] it was 2.47 µM; in assay [3] it was 3.17 µM; in assay [4], 3.38 µM; in assay [5] it was 3.09 µM; in assay [6] it was 3.7 µM. Besides, the TGI turned out to be 4.95 µM in [7], 6.09 µM in [8], 4.13 µM in [9] and 5 µM in assay [10].

Regarding `C[C@H](Nc1ncnc2nc[nH]c12)c1cc2cccc(Cl)c2c(=O)n1-c1ccccc1`, the GI50 was 11.8 µM in assay [1]; 19.8 µM in assay [2]; 11.8 µM in assay [3]; 28.4 µM in assay [4]; 1.42 µM in [5]; 13.5 µM in assay [6]. For the same molecule, the GI50 in assay [7] is 10.8 µM; in assay [8], 2.8 µM; in assay [9], 5.92 µM; in [10] it was > 100 µM. The TGI in assay [1] is > 100 µM; in [2] it was > 100 µM; in assay [3], > 100 µM; in [4], > 100 µM; in [5], > 86.7 µM; in assay [6], > 100 µM. In addition, the TGI in assay [7] was > 100 µM; in assay [8], 45.5 µM; in assay [9] it was > 100 µM; in [10], > 100 µM.

As for `O=C(c1ccccc1)C1N=NCC1c1ccc([N+](=O)[O-])cc1` (stereo not drawn), the TGI was > 100 µM in assay [1]; > 100 µM in assay [2]; > 100 µM in [3]; > 100 µM in [4]; > 100 µM in assay [5]; 44.5 µM in assay [6]. Besides, the TGI in assay [7], in assay [8], in [9] and in assay [10] was > 100 µM each time.

Regarding `Nc1ccn(Cc2ccc(C34CC5CC(CC(C5)C3)C4)c(O)c2)c(=O)n1`, the GI50 is > 100 µM in assay [1]; > 100 µM in [2]; 23.6 µM in assay [3]; 32.1 µM in assay [4]; 47.7 µM in assay [5]; > 100 µM in assay [6]. Moreover, the GI50 in assay [7], in assay [8], in [9] and in assay [10] was > 100 µM in each case. Further, the TGI in assay [1], in [2], in [3], in [4], in [5] and in [6] was > 100 µM in each case. For the same molecule, the TGI in assay [7], in [8], in assay [9] and in assay [10] was > 100 µM each time.
